According to US20070238700A1, “N-PHENYL-1,1,1-TRIFLUOROMETHANESULFONAMIDE HYDRAZONE DERIVATIVE COMPOUNDS AND THEIR USAGE IN CONTROLLING PARASITES” (priority 2006, published 2007):
Read-outs that look alike come from different tables or passages of the source.

Key:
Ctenocephalides felis [1] = tested on: Ctenocephalides felis
How it was run: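 Adult cat fleas (3–7 days post-emergence), 15 per flask in ≥4 replicates, exposed to a dried acetone residue at 1.26 μg/cm^2 on a Coatasil-treated glass flask base. Held at 25±1° C, 75±5% humidity; mortality (immobile or unable to right) scored at 8, 24 and/or 48 h.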

Ctenocephalides felis [2] = assay: Ctenocephalides felis adulticide assay: C. felis dose response (LC50)
Source text: c) Ctenocephalides felis Adulticide Assay: C. felis Dose Response
The purpose of this example was to determine the LC50 when cat fleas were contacted with a glass surface treated with sample compounds or formulations prepared as described above. […] The test species was the cat flea (Ctenocephalides felis). The strain used was obtained from external suppliers as pupae and held in the laboratory under testing conditions until the adults had emerged. Fifteen (15) fleas were used in a minimum of four replicates for each dose level (total of 60 fleas per dose level). The insects were selected to be in the adult life stage, aged between 3 and 7 days post emergence.
The compounds to be tested were dissolved in acetone just prior to testing. Samples of compounds were stored in a refrigerator (5±1° C.) unless otherwise specified. During the mortality testing, the temperature was maintained at 25±1° C. Humidity was maintained at 75±5%. The base (area=159 mm^2) of a 100 mL glass Erlenmeyer (conical) flask provided the treatment surface. Flasks were pretreated with Coatasil™ glass treatment to maximise bio-availability of test compounds by preventing them from binding to the glass surface.
The base of the 100 mL Erlenmeyer flask was treated with 0.5 mL of test sample in acetone and gently swirled. This volume was sufficient to cover the base of the flask. Flasks were left to dry for 24 hours before flea exposure. Adult cat fleas were lightly anaesthetised by cooling and then placed into a sorting chamber, which allowed fleas to revive and jump into the Erlenmeyer flasks. Fifteen (15) adult cat fleas were collected in each flask. The top of the flasks were then covered in Parafilm™ and small holes made to allow gas exchange. A 0.5 mL volume of acetone was applied to the base of an Erlenmeyer flask and the testing proceeded in the same manner described above. Cat fleas in the treatment containers were held under testing conditions for 24 hours. Mortality resulting from the treatments was recorded at 8 and 24 hours.

Rhipicephalus sanguineus [3] = assay: Rapid screening protocol for topical application on brown dog ticks (% mortality); conditions: data from laboratory 2
How it was run: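 Mixed-sex unfed adult ticks each received 1 μL test sample in acetone on the abdomen at a single screening dose chosen above the reference LD90 (fipronil 10 μg/tick), with acetone-only controls; 4 replicates of 10 ticks. Held 24 h at 25±1 °C; ticks unresponsive to light touch over 1 min scored dead, pooled as % mortality.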

Rhipicephalus sanguineus [4] = assay: Dose response protocol for topical application on brown dog ticks (LD50); conditions: 24 h mortality, probit analysis
Description: e) Dose response protocol for topical application on brown dog ticks (Rhipicephalus sanguineus): The test determines the level of insecticidal activity of sample compounds or formulations when applied topically on brown dog ticks. Sample compounds were stored prior to use in a freezer (−5±1° C.), unless otherwise specified.
• Mortality: A tick is defined as dead after it gives no apparent response when touched lightly or gently breathed upon, while observed for 30 seconds. • LD50 (Lethal Dose 50): The dose of a topically applied treatment at which 50% of the dog ticks are killed. • Reference compound: To assess an experimental compound for significant acaricidal activity a single dose level is chosen, which is based upon known results from previous experiments using a commercially available active i.e., a reference compound. The reference compound selected is one in common use, and one that has a similar mode of action against the Brown Dog Tick (i.e., the test species), • Recovery container: A recovery container consists of a 500 ml round plastic container measuring 115 mm diameter and 70 mm height, with a tight fitting lid that has 10 small (˜1 mm) holes inserted for air exchange. A 90 mm diameter piece of filter paper was placed on the bottom of the container and moistened with 1 mL of distilled water.
Adult, mixed sex, Brown Dog Ticks (Rhipicephalus sanguineus) were reared as follows: (i) cultured, (ii) transferred unfed, to a testing laboratory, and (iii) then maintained under controlled conditions (i.e., temp. 18°±2° C., humidity 75±5% RH). The ticks used were selected for vigor prior to testing, i.e., capable of actively walking and responsive to being touched or gently breathed upon.
During the testing, the temperature was maintained at 25±1° C. and the humidity was ambient. Seven dose levels (concentrations) of sample compound, in the form of serial dilutions in acetone, were derived from a pilot study and covered a range that produced very low to very high mortality. Groups of ten ticks were treated topically (on the abdomen) with 1 μL of a single dose level of the sample compound. Each test was replicated four times, i.e., employing a total of 40 ticks per dose level of each sample compound. As a control, ten ticks were treated with solvent only (acetone) for each test. Following the treatment, the ticks were held in recovery containers maintained under appropriate rearing conditions for 24 hours. Mortality resulting from the treatments was recorded at 24 hours. […] Press, London (1971).]

SMILES | C. felis Mortality (%) 8 h (Ctenocephalides felis [1]) | C. felis Mortality (%) 24 h (Ctenocephalides felis [1]) | C. felis LC50 (Ctenocephalides felis [2]) | R. sanguineus Mortality (%) 24 h (Rhipicephalus sanguineus [3]) | R. sanguineus LD50 (Rhipicephalus sanguineus [4]) | C. felis LC50 (Ctenocephalides felis [2]; data from laboratory 1)
CC(=NN(C)c1cc(Cl)cc(Cl)c1)c1cc(Cl)ccc1NS(=O)(=O)C(F)(F)F [Compound 99] | 57% | 100% | 1.9 ppm | 95% | 3.1 μg/tick | 
CC(=NN(C)c1cccc(Cl)c1Cl)c1cc(Cl)ccc1NS(=O)(=O)C(F)(F)F [Compound 100] | 55% | 100% | 1.7 ppm | 70% | 4.0 μg/tick | 
CC(=NN(C)c1ccc(Cl)cc1)c1cc(Cl)ccc1NS(=O)(=O)C(F)(F)F [Compound 105] | 42% | 100% | 3.0 ppm | 95% | 1.4 μg/tick | 
CC(=NN1CCCC1)c1cc(Cl)ccc1NS(=O)(=O)C(F)(F)F [Compound 116] | 98% | 100% | 2.66 ppm | 93% | 0.74 μg/tick | 
CCOC(=O)N(CC)N=C(C)c1cc(Cl)ccc1NS(=O)(=O)C(F)(F)F [Compound 125] | 82% | 100% | 3.62 ppm | 95% | 0.64 μg/tick | 
CCOC(=O)N(C)N=C(C)c1cc(Cl)ccc1NS(=O)(=O)C(F)(F)F [Compound 126] | 55% | 97% |  | 100% | 0.69 μg/tick | 1.84 ppm
CCOC(=O)N(CC)N=C(CC)c1cc(Cl)ccc1NS(=O)(=O)C(F)(F)F [Compound 127] | 100% | 100% | 1.22 ppm | 100% | 0.54 μg/tick | 
CCC(=NN1CCCCC1)c1cc(Cl)ccc1NS(=O)(=O)C(F)(F)F [Compound 129] | 27% | 98% | 2.82 ppm | 98% | 0.52 μg/tick | 
CCC(=NN1CCCCC1)c1cc(Cl)ccc1NS(=O)(=O)C(F)(F)F [Compound 130] | 34% | 91% | 2.36 ppm | 98% | 1.08 μg/tick | 
CCN(N=C(C)c1cc(Cl)ccc1NS(=O)(=O)C(F)(F)F)C(=O)OC [Compound 139] | 97% | 100% | 5.14 ppm | 100% | 0.39 μg/tick | 
CCC(=NN(CC)C(=O)OC)c1cc(Cl)ccc1NS(=O)(=O)C(F)(F)F [Compound 140] | 89% | 100% | 3.70 ppm | 100% | 0.28 μg/tick | 
CC(=NN(C)c1cccc(C(F)(F)F)c1)c1cc(Cl)ccc1NS(=O)(=O)C(F)(F)F [Compound 203] | 11% | 98% | 1.30 ppm | 95% | 0.68 μg/tick | 
C/C(=N\N(C)C1CCCC1)c1cc(Cl)ccc1NS(=O)(=O)C(F)(F)F [Compound 211] | 12% | 85% | 1.9 ppm | 98% | 1.01 μg/tick | 
C/C(=N\N(C)C1CCCCC1)c1cc(Cl)ccc1NS(=O)(=O)C(F)(F)F [Compound 215] | 8% | 100% | 2.54 ppm | 73% | 1.29 μg/tick | 
CC(=O)N(CCC#N)/N=C(\C)c1cc(Cl)ccc1NS(=O)(=O)C(F)(F)F [Compound 221] | 15% | 100% | 2.2 ppm | 90% | 0.53 μg/tick | 
C/C(=N\N(CCC#N)C(=O)c1ccccc1)c1cc(Cl)ccc1NS(=O)(=O)C(F)(F)F [Compound 222] | 5% | 89% | 2.64 ppm | 88% | 0.56 μg/tick | 
CCCCCC(=O)N(CCC#N)/N=C(\C)c1cc(Cl)ccc1NS(=O)(=O)C(F)(F)F [Compound 224] | 3% | 100% | 3.54 ppm | 100% | 0.71 μg/tick | 
